Data taken from patent US9056110B2, “Substituted pyrimidinone-phenyl-pyrimidinyl compounds” (Confluence Life Sciences, Inc., priority 2011, dated 2015).
pIC50: −log10 of the molar value.

Legend:
p38α/MK2 = p38α/MK2 (Homo sapiens, UniProt Q16539); assay: p38α/MK2 cascade assay (IMAP, Hsp27 peptide phosphorylation); assay type: biochemical; conditions: for pIC50: p38α/MK2 cascade, Hsp27 peptide 1 μM, MgATP 10 μM, 120 minutes, read-out: p38/MK2 IC50; for Selectivity Ratio: ratio of p38α/PRAK:p38α/MK2 IC50 values
Sequence of p38α/MK2 (Q16539 whole entry): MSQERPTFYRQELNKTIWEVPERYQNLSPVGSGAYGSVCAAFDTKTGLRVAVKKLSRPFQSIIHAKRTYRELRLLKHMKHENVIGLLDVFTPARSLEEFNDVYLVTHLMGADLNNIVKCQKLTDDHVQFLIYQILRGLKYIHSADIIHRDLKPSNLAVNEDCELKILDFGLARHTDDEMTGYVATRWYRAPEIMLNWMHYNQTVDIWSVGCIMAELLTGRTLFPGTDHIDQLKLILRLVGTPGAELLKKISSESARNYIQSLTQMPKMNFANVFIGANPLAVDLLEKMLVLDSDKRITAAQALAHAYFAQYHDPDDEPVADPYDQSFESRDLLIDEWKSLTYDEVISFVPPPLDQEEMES
Sequence of p38α/MK2 (P49137 whole entry partner): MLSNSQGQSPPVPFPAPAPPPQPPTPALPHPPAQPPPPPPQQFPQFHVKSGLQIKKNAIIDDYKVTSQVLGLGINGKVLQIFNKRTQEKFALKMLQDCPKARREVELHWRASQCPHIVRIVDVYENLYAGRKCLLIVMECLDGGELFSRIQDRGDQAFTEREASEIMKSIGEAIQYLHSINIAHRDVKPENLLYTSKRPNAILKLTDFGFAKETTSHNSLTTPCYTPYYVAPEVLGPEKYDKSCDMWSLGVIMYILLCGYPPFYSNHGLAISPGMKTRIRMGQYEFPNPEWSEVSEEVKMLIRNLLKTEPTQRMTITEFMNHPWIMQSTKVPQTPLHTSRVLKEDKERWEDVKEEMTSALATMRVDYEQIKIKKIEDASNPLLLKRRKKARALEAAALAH
Method: (§1) P38 inhibitory potency and P38/MK2 substrate selectivity: The novel, MK2 substrate-selective inhibitory mechanism of compounds is evaluated in enzyme assays that compare inhibitor potency in blocking p38/MK2 versus p38/PRAK induced phosphorylation of an HSP-27 derived peptide substrate. The ability of compounds to inhibit activated phospho-p38α is evaluated using a p38α/MK2 and a p38α/PRAK cascade assay format. The kinase activity of p38α is determined by its ability to phosphorylate and activate GST-MK2 or GST-PRAK. The kinase activity of activated MK2 and PRAK is followed by measuring the phosphorylation of a fluorescently-labeled, peptide substrate based on the sequence of Hsp27 (FITC-KKKALSRQLSVAA). The phosphorylation of the Hsp27 peptide is quantified using IMAP assay technology (Molecular Devices) and the Analyst HT plate reader (LJL Biosystems). Kinase reactions are carried out in a 384-well plate (Corning 3575) in 20 mM HEPES pH 7.5, 10 mM MgCl2, 0.0005% Tween-20, 0.01% BSA, 1 mM DTT, and 2% DMSO. The inhibitor concentration varies between 0.5-30,000 nM, while the Hsp27 peptide substrate and MgATP are held constant at 1 μM and 10 μM, respectively. Activated p38α is added to a final concentration of 20 pM for reactions with 1 nM nonphosphorylated 1 nM GST-MK2. For the p38α/PRAK cascade, unactivated GST-PRAK is held constant at 10 nM while p38α is added to a final concentration of […]. Kinase reactions are incubated at room temperature and quenched after 120 minutes by the addition of 1× Progressive Binding Buffer A containing 1×IMAP beads (IMAP FP Progressive Screening Express Kit, Molecular Devices Catalog Number R8127). Inhibitor potency is calculated by fitting dose-response data to the 4-parameter logistical IC50 equation. The substrate selectivity is calculated as a ratio of p38α/PRAK:p38α/MK2 IC50 values. A substrate selective inhibitor will have a p38α/PRAK:p38α/MK2 IC50 ratio of >2 while a classical p38 inhibitor will have a ratio of between 0.5-2. […] By way of example, the enhanced therapeutic benefit could be associated with a reduction in inhibition of p38 mediated anti-inflammatory functions, such as IL-10 production and TAB1 phosphorylation. An increased safety profile is expected based, for example, on a reduced inhibition of p38 substrates, such as PPARg and CDC25 phosphatase and PLA2 involved in gluconeogenesis and cell cycle regulation, respectively.

TNFα = assay: LPS stimulated TNFα production in human PBMCs (ELISA); assay type: cell-based; conditions: PBMC, LPS 0.1 μg/ml, 18-24 hours, read-out: PBMC Cell, TNFα IC50
Method: Evaluation of the potency and efficacy of p38 inhibitors to block cytokine production is carried out using the human U937 cell line and purified human PBMCs (peripheral blood mononuclear cells). The U937 human pre-monocytic cell line is obtained from the American Type Culture Collection (Rockville, Md.). These cells are differentiated to a monocytic/macrophage phenotype as described by Burnette (Burnette et al., (2009). SD0006: a potent, selective and orally available inhibitor of p38 kinase, Pharmacology 84(1):42-60). Differentiated U937 cells are seeded into 96-well tissue culture plates (200,000 cells/well) in complete media. After 24 hours, the cells are pretreated for 60 minutes in the presence or absence of compound and then stimulated with LPS (lipopolysaccharide) (0.1 μg/mL) for 4 hours. Culture media are then collected for determination of TNFα or IL-6 levels by ELISA. Human PBMCs are isolated from leukopacks as described by Burnette (Burnette et al., (2009), op. cit.). The cells are seeded into 96-well tissue culture plates (200,000 cells/well) in complete media. After a one hour recovery period at 37° C., 5% CO2, the cells are pretreated for 60 minutes in the presence or absence of compound and then stimulated with LPS (0.1 μg/ml) for 18-24 hours. Culture media are then collected for determination of TNFα and IL1β by ELISA. Cytokine concentrations are extrapolated from recombinant protein standard curves using a four-parameter logistic model and solving for IC50 after iterating to the best least-squares fit. p38 inhibitors will show a dose dependent inhibition of LPS stimulated TNFα, and IL6 in differentiated U937 cells and a dose dependent inhibition of LPS stimulated TNFα, IL6 and IL1b in human PBMCs. As drugs that down-regulate TNFα, IL6 and IL1b are efficacious in a number of autoimmune, autoinflammatory inflammatory, cardiovascular and oncological diseases, it would be expected that p38 drugs that inhibit these cytokines and other enzymes and mediators of disease will be effective drugs. Species compounds of Formula (I), described hereinabove, evaluated in this assay, are expected to provide a therapeutic benefit in the treatment of p38 kinase mediated diseases, including lymphoma and inflammation.

p38α/PRAK = p38α/PRAK (Homo sapiens, UniProt Q16539); assay: p38α/PRAK cascade assay (IMAP, Hsp27 peptide phosphorylation); assay type: biochemical; conditions: Hsp27 peptide 1 μM, MgATP 10 μM, 120 minutes, read-out: p38/PRAK IC50
Sequence of p38α/PRAK (Q16539 whole entry): as the sequence (Q16539 whole entry) above
Method: as §1

pIC50 (p38α/MK2)	Selectivity Ratio (p38α/MK2)	pIC50 (TNFα)	pIC50 (p38α/PRAK)	SMILES
6.92	18.1	6.80	5.66	Cc1nc(COc2nc(C)n(-c3cc(-c4ccnc(C(C)(C)O)n4)ccc3C)c(=O)c2Cl)co1 (racemic) [Example 8, 5-chloro-3-(5-(2-(2-hydroxypropan-2-yl)pyrimidin-4-yl)-2-methylphenyl)-2-methyl-6-((2-methyloxazol-4-yl)methoxy)pyrimidin-4(3H)-one]
6.74	17.9	6.60	5.48	Cc1cccc(COc2nc(C)n(-c3cc(-c4ccnc(C(C)(C)O)n4)ccc3C)c(=O)c2Cl)n1 (racemic) [Example 14, 5-chloro-3-(5-(2-(2-hydroxypropan-2-yl)pyrimidin-4-yl)-2-methylphenyl)-2-methyl-6-((6-methylpyridin-2-yl)methoxy)pyrimidin-4(3H)-one]
7.40	14.1	6.98	6.25	Cc1ccc(-c2ccnc(C(C)(C)O)n2)cc1-n1c(C)nc(OCc2ncc(F)cc2F)c(Cl)c1=O (racemic) [Example 19, 5-chloro-6-((3,5-difluoropyridin-2-yl)methoxy)-3-(5-(2-(2-hydroxypropan-2-yl)pyrimidin-4-yl)-2-methylphenyl)-2-methylpyrimidin-4(3H)-one]
4.72	>1.56			Cc1nc(COc2nc(C)n(-c3cc(-c4ccnc(C(C)(C)O)n4)ccc3C)c(=O)c2Cl)co1 (single isomer, unassigned) [Example 10, (+)-5-chloro-3-(5-(2-(2-hydroxypropan-2-yl)pyrimidin-4-yl)-2-methylphenyl)-2-methyl-6-((2-methyloxazol-4-yl)methoxy)pyrimidin-4(3H)-one]
5.30	>6.0	5.45		Cc1cccc(COc2nc(C)n(-c3cc(-c4ccnc(C(C)(C)O)n4)ccc3C)c(=O)c2Cl)n1 (single isomer, unassigned) [Example 16, (+)-5-chloro-3-(5-(2-(2-hydroxypropan-2-yl)pyrimidin-4-yl)-2-methylphenyl)-2-methyl-6-((6-methylpyridin-2-yl)methoxy)pyrimidin-4(3H)-one]
6.90	10.6	6.56	5.88	Cc1nc(COc2nc(C)n(-c3cc(-c4ccnc(C(C)(C)O)n4)ccc3C)c(=O)c2Cl)co1 [Example 9, (−)-5-chloro-3-(5-(2-(2-hydroxypropan-2-yl)pyrimidin-4-yl)-2-methylphenyl)-2-methyl-6-((2-methyloxazol-4-yl)methoxy)pyrimidin-4(3H)-one]
7.21	10.9	6.90	6.17	Cc1nc(COc2nc(C)n(-c3cc(-c4ccnc(C(C)(C)O)n4)ccc3C)c(=O)c2Br)cs1 [Example 11, 5-bromo-3-(5-(2-(2-hydroxypropan-2-yl)pyrimidin-4-yl)-2-methylphenyl)-2-methyl-6-((2-methylthiazol-4-yl)methoxy)pyrimidin-4(3H)-one]
5.27	2.82		4.82	Cc1ccc(-c2ccnc(C(C)(C)O)n2)cc1-n1c(C)nc(OCc2ncc(F)cc2F)c(Cl)c1=O [Example 20, (+)-5-chloro-6-((3,5-difluoropyridin-2-yl)methoxy)-3-(5-(2-(2-hydroxypropan-2-yl)pyrimidin-4-yl)-2-methylphenyl)-2-methylpyrimidin-4(3H)-one]

The next lines start with the compound.

SMILES	pIC50 (p38α/MK2)	Selectivity Ratio (p38α/MK2)	pIC50 (TNFα)	pIC50 (p38α/PRAK)
Cc1ccc(-c2ccnc(C(C)(C)O)n2)cc1-n1c(C)nc(OCc2ccc(F)cc2F)c(Br)c1=O [Example 1, 5-bromo-6-((2,4-difluorobenzyl)oxy)-3-(5-(2-(2-hydroxypropan-2-yl)pyrimidin-4-yl)-2-methylphenyl)-2-methylpyrimidin-4(3H)-one]	7.82	5.1	7.92	7.12
Cc1ccc(-c2ccnc(C(C)(C)O)n2)cc1-n1c(C)nc(OCc2ccc(F)cc2F)c(Cl)c1=O [Example 2, 5-chloro-6-(2,4-difluoro-benzyloxy)-3-{5-[2-(1-hydroxy-1-methyl-ethyl)-pyrimidin-4-yl]-2-methyl-phenyl}-2-methyl-3H-pyrimidin-4-one]	7.82	5.5	8.01	7.08
Cc1ccc(-c2ccnc(C(C)(C)O)n2)cc1-n1c(C)nc(OCc2ccc(F)cc2)c(Cl)c1=O [Example 3, 5-chloro-6-((4-fluorobenzyl)oxy)-3-(5-(2-(2-hydroxypropan-2-yl)pyrimidin-4-yl)-2-methylphenyl)-2-methylpyrimidin-4(3H)-one]	7.29	10.1	7.27	6.29
Cc1cccc(COc2nc(C)n(-c3cc(-c4ccnc(C(C)(C)C)n4)ccc3C)c(=O)c2Cl)c1 [Example 4, 3-(5-(2-(tert-butyl)pyrimidin-4-yl)-2-methylphenyl)-5-chloro-2-methyl-6-((3-methylbenzyl)oxy)pyrimidin-4(3H)-one]	5.99	12.6	7.00	4.89
Cc1cccc(COc2nc(C)n(-c3cc(-c4ccnc(C(C)(C)O)n4)ccc3C)c(=O)c2Cl)c1 [Example 5, 5-chloro-3-(5-(2-(2-hydroxypropan-2-yl)pyrimidin-4-yl)-2-methylphenyl)-2-methyl-6-((3-methylbenzyl)oxy)pyrimidin-4(3H)-one]	7.41	14.9	7.40	6.24
COc1cccc(COc2nc(C)n(-c3cc(-c4ccnc(C(C)(C)C)n4)ccc3C)c(=O)c2Cl)c1 [Example 6, 3-[5-(2-tert-butyl-pyrimidin-4-yl)-2-methyl-phenyl]-5-chloro-6-(3-methoxy-benzyloxy) -2-methyl-3H-pyrimidin-4-one]	5.72	6.1	6.57	4.94
COc1cccc(COc2nc(C)n(-c3cc(-c4ccnc(C(C)(C)O)n4)ccc3C)c(=O)c2Cl)c1 [Example 7, 5-chloro-3-(5-(2-(2-hydroxypropan-2-yl)pyrimidin-4-yl)-2-methylphenyl)-6-((3-methoxybenzyl)oxy)-2-methylpyrimidin-4(3H)-one]	7.21	24	7.03	5.83
